Assays:
human TLR8 = human TLR8 (Homo sapiens (Human), UniProt Q9NR97); test: TLR8 inhibition reporter assay (HEK-Blue SEAP reporter, R848 stimulation); settings: read-out: TLR8 IC50; HEK-Blue cells overexpressing human TLR8, R848 15.9 μM, SEAP reporter;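 note: SEAP driven by IFN-β minimal promoter with NF-κB and AP-1 sites, 22 h incubation, compounds 0.05 nM–50 µM, inhibition scaled between agonist plus DMSO and reference inhibitor wells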
human TLR7 = human TLR7 (Homo sapiens (Human), UniProt Q9NYK1); test: TLR7 inhibition reporter assay (HEK-Blue SEAP reporter, gardiquimod stimulation); format: cell-based; settings: HEK-Blue cells overexpressing human TLR7, gardiquimod 7.5 μM
human TLR9 = human TLR9 (Homo sapiens (Human), UniProt Q9NR96); test: TLR9 inhibition reporter assay (HEK-Blue SEAP reporter, ODN2006 stimulation); settings: read-out: TLR9 IC50; HEK-Blue cells overexpressing human TLR9, ODN2006 5 nM, SEAP reporter;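 note: SEAP reporter under IFN-β minimal promoter with five NF-κB and AP-1 sites, 22 h incubation, compounds 0.05 nM–50 µM, inhibition relative to agonist plus DMSO versus known inhibitor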
Chain of human TLR9 (Q9NR96 26-1032): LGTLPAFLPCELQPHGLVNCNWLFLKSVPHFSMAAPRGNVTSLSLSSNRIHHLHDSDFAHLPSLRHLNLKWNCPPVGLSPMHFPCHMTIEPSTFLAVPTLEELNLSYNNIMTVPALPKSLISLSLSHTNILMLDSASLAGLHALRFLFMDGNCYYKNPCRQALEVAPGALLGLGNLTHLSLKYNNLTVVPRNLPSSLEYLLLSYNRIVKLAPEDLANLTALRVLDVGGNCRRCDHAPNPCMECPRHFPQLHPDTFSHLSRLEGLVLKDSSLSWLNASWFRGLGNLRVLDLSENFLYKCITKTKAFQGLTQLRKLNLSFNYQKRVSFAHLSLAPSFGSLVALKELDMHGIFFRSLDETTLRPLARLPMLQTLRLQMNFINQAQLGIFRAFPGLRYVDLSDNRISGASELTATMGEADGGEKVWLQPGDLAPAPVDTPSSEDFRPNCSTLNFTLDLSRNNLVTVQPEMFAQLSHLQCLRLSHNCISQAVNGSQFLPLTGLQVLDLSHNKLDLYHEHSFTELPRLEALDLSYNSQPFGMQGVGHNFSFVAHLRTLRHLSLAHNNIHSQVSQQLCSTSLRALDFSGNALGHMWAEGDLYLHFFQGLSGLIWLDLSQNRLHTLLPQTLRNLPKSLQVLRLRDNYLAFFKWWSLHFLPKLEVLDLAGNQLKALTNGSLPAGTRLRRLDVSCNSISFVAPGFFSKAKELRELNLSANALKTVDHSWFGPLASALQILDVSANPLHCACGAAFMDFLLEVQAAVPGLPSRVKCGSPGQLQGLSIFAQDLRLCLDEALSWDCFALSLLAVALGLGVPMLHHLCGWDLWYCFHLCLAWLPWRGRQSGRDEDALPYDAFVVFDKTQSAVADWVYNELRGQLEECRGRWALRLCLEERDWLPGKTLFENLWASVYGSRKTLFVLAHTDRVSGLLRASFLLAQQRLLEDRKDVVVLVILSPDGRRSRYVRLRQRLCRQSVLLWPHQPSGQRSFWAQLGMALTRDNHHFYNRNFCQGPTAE
Experimental: HEK-Blue™-cells (Invivogen) overexpressing human TLR7, TLR8 or TLR9 receptors were used for screening inhibitors of these receptors using an inducible SEAP (secreted embryonic alkaline phosphatase) reporter gene under the control of the IFN-β minimal promoter fused to five NF-κB and AP-1-binding sites. Briefly, cells are seeded into Greiner 384 well plates (15000 cells per well for TLR7, 20,000 for TLR8 and 25,000 for TLR9) and then treated with test compounds in DMSO to yield a final dose response concentration range of 0.05 nM-50 μM. After a 30 minute compound pre-treatment at room temperature, the cells are then stimulated with a TLR7 ligand (gardiquimod at a final concentration of 7.5 μM), TLR8 ligand (R848 at a final concentration of 15.9 μM) or TLR9 ligand (ODN2006 at a final concentration of 5 nM) to activate NF-κB and AP-1 which induce the production of SEAP. After a 22 hour incubation at 37° C., 5% CO2, SEAP levels are determined with the addition of HEK-Blue™ Detection reagent (Invivogen), a cell culture medium that allows for detection of SEAP, according to manufacturer's specifications.

Chain of human TLR7 (Q9NYK1 27-1049): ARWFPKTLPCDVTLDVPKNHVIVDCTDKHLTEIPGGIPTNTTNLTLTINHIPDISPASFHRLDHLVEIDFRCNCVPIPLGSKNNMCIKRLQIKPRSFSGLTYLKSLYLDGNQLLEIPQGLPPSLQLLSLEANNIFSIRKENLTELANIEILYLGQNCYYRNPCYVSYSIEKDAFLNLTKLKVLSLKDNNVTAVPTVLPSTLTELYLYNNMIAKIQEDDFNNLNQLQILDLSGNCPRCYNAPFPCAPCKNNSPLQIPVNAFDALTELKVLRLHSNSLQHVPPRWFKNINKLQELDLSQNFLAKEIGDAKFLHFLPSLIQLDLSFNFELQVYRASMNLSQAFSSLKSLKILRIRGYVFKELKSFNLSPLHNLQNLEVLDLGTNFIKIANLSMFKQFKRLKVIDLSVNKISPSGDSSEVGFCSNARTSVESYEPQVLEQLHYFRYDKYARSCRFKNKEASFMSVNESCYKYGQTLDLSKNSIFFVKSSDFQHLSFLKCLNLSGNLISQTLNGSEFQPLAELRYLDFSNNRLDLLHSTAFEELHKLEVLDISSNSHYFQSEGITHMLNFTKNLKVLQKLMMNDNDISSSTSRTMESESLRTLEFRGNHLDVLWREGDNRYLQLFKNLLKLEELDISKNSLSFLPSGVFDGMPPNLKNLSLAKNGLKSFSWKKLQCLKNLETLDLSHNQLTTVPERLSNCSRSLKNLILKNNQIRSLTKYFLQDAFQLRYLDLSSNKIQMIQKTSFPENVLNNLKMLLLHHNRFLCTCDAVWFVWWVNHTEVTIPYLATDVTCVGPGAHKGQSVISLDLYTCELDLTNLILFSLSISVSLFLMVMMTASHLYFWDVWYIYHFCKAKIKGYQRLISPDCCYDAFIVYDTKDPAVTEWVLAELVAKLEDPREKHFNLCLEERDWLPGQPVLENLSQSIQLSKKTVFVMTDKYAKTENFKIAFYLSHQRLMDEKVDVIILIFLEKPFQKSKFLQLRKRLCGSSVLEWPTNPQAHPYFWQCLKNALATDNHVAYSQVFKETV
Chain of human TLR8 (Q9NR97 27-1041): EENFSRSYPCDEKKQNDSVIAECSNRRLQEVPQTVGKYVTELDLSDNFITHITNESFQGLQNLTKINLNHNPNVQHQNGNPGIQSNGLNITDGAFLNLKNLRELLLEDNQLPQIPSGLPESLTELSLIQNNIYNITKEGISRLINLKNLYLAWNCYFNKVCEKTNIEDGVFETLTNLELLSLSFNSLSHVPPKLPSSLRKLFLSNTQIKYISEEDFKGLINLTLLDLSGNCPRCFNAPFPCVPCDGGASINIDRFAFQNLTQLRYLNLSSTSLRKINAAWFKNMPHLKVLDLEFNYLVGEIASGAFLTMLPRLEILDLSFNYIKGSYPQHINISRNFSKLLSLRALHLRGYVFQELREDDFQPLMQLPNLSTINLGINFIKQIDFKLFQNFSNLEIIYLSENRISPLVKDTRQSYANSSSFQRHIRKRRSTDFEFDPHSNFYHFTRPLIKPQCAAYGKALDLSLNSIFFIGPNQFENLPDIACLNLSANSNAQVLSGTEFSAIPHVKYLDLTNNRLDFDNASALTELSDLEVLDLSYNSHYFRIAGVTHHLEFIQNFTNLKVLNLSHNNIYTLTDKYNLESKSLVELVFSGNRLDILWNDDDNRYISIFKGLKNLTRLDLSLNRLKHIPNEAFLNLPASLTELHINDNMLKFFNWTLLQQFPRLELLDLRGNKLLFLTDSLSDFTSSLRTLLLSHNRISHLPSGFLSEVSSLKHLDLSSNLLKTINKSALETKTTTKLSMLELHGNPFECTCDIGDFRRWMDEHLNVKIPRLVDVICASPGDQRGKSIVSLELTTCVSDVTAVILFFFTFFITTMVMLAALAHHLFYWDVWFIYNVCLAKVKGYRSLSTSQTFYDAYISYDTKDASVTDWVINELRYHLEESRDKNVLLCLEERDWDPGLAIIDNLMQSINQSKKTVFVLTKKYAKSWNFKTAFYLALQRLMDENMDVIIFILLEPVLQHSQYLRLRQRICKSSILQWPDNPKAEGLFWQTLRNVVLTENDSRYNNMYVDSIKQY

| SMILES | IC50 (human TLR8) [µM] | IC50 (human TLR7) [µM] | IC50 (human TLR9) [µM] |
| --- | --- | --- | --- |
| Cc1cc(-c2[nH]c3ccc(C(C)(C)C(=O)N4CCCCC4CN)cc3c2C(C)C)ccn1 (stereo not drawn) [Example 157, 1-(2-(aminomethyl)piperidin-1-yl)-2-(3-isopropyl-2-(2-methylpyridin-4-yl)-1H-indol-5-yl)-2-methylpropan-1-one] | 0.028 | 0.0063 | 0.997 |
| Cc1cc(-c2[nH]c3ccc(C(C)(C)C(=O)N4CCC(CN)CC4)cc3c2C(C)C)ccn1 [Example 158, 1-(4-(aminomethyl)piperidin-1-yl)-2-(3-isopropyl-2-(2-methylpyridin-4-yl)-1H-indol-5-yl)-2-methylpropan-1-one] | 0.5 | 0.079 | 3.03 |
| Cc1cc(-c2[nH]c3ccc(C(C)(C)C(=O)NCC4CCCCN4)cc3c2C(C)C)ccn1 (stereo not drawn) [Example 159, 2-(3-isopropyl-2-(2-methylpyridin-4-yl)-1H-indol-5-yl)-2-methyl-N-(piperidin-2-ylmethyl)propanamide] | 0.018 | 0.139 | 0.855 |
| Cc1cc(-c2[nH]c3ccc(C(C)(C)C(=O)NC[C@H]4CCNC4)cc3c2C(C)C)ccn1 [Example 160, (S)-2-(3-isopropyl-2-(2-methylpyridin-4-yl)-1H-indol-5-yl)-2-methyl-N-(pyrrolidin-3-ylmethyl)propanamide] | 1.03 | 0.164 | 5.09 |
| Cc1cc(-c2[nH]c3ccc(C(C)(C)C(=O)N(C)C4CCCNC4)cc3c2C(C)C)ccn1 (stereo not drawn) [Example 161, 2-(3-isopropyl-2-(2-methylpyridin-4-yl)-1H-indol-5-yl)-N,2-dimethyl-N-(piperidin-3-yl)propanamide] | 0.031 | 0.042 | 1.74 |
| Cc1cc(-c2[nH]c3ccc(C(C)(C)C(=O)N(C)C4CN5CCC4CC5)cc3c2C(C)C)ccn1 (stereo not drawn) [Example 162, 2-(3-isopropyl-2-(2-methylpyridin-4-yl)-1H-indol-5-yl)-N,2-dimethyl-N-(quinuclidin-3-yl)propanamide] | 0.135 | 0.024 | 3.52 |
| Cc1cc(-c2[nH]c3ccc(C(C)(C)C(=O)NCC4CCCNC4)cc3c2C(C)C)ccn1 (stereo not drawn) [Example 163, 2-(3-isopropyl-2-(2-methylpyridin-4-yl)-1H-indol-5-yl)-2-methyl-N-(piperidin-3-ylmethyl)propanamide] | 0.676 | 0.238 | 1.88 |
| Cc1cc(-c2[nH]c3ccc(C(C)(C)C(=O)NCC4CCNCC4)cc3c2C(C)C)ccn1 [Example 164, 2-(3-isopropyl-2-(2-methylpyridin-4-yl)-1H-indol-5-yl)-2-methyl-N-(piperidin-4-ylmethyl)propanamide] | 0.617 | 0.331 | 2.53 |
| Cc1cc(-c2[nH]c3ccc(C(C)(C)C(=O)N(C)C4CCNCC4)cc3c2C(C)C)ccn1 [Example 165, 2-(3-isopropyl-2-(2-methylpyridin-4-yl)-1H-indol-5-yl)-N,2-dimethyl-N-(piperidin-4-yl)propanamide] | 0.063 | 0.061 | 0.908 |
| Cc1cc(-c2[nH]c3ccc(C(C)(C)C(=O)NC4C[C@H]5CC[C@@H](C4)N5C)cc3c2C(C)C)ccn1 (stereo partly drawn) [Example 166, 2-(3-isopropyl-2-(2-methylpyridin-4-yl)-1H-indol-5-yl)-2-methyl-N-((1R,5S)-8-methyl-8-azabicyclo[3.2.1]octan-3-yl)propanamide] | 0.135 | 0.022 | 8.23 |
| Cc1cc(-c2[nH]c3ccc(C(C)(C)C(=O)NC4CCC(N)CC4)cc3c2C(C)C)ccn1 (stereo not drawn) [Example 167, N-(4-aminocyclohexyl)-2-(3-isopropyl-2-(2-methylpyridin-4-yl)-1H-indol-5-yl)-2-methylpropanamide] | 0.036 | 0.063 | 2.9 |
| Cc1cc(-c2[nH]c3ccc(C(C)(C)C(=O)NC4CCCC(N)C4)cc3c2C(C)C)ccn1 (stereo not drawn) [Example 168, N-(3-aminocyclohexyl)-2-(3-isopropyl-2-(2-methylpyridin-4-yl)-1H-indol-5-yl)-2-methylpropanamide] | 0.044 | 0.096 | 2.67 |
| Cc1cc(-c2[nH]c3ccc(C(C)(C)C(=O)N[C@@H]4CCCC[C@H]4N)cc3c2C(C)C)ccn1 [Example 169, N—((R,2R)-2-aminocyclohexyl)-2-(3-isopropyl-2-(2-methylpyridin-4-yl)-1H-indol-5-yl)-2-methylpropanamide] | 0.0071 | 0.016 | 0.899 |
| Cc1cc(-c2[nH]c3ccc(C(C)(C)C(=O)N[C@H]4CCCC[C@H]4N)cc3c2C(C)C)ccn1 [Example 170, N-((1S,2R)-2-aminocyclohexyl)-2-(3-isopropyl-2-(2-methylpyridin-4-yl)-1H-indol-5-yl)-2-methylpropanamide] | 0.051 | 0.011 | 1.66 |
| Cc1cc(-c2[nH]c3ccc(C(C)(C)C(=O)NCCC4CCCNC4)cc3c2C(C)C)ccn1 (stereo not drawn) [Example 171, 2-(3-isopropyl-2-(2-methylpyridin-4-yl)-1H-indol-5-yl)-2-methyl-N-(2-(piperidin-3-yl)ethyl)propanamide] | 0.602 | 0.067 | 5.22 |
| Cc1cc(-c2[nH]c3ccc(C(C)(C)C(=O)NC[C@H]4CC[C@H](N)CC4)cc3c2C(C)C)ccn1 [Example 172, N-(((1r,4r)-4-aminocyclohexyl)methyl)-2-(3-isopropyl-2-(2-methylpyridin-4-yl)-1H-indol-5-yl)-2-methylpropanamide] | 0.325 | 0.058 | 1.8 |
| Cc1cc(-c2[nH]c3ccc(C(C)(C)C(=O)NCC4(O)CCN(C)CC4)cc3c2C(C)C)ccn1 [Example 173, N-((4-hydroxy-1-methylpiperidin-4-yl)methyl)-2-(3-isopropyl-2-(2-methylpyridin-4-yl)-1H-indol-5-yl)-2-methylpropanamide] | 0.15 | 0.057 | 0.691 |
| Cc1cc(-c2[nH]c3ccc(C(C)(C)C(=O)NCC4(O)CN5CCC4CC5)cc3c2C(C)C)ccn1 (stereo not drawn) [Example 174, N-((3-hydroxyquinuclidin-3-yl)methyl)-2-(3-isopropyl-2-(2-methylpyridin-4-yl)-1H-indol-5-yl)-2-methylpropanamide] | 0.55 | 0.054 | 2.06 |
| Cc1cc(-c2[nH]c3ccc(C(C)(C)C(=O)N4CCNCC4)cc3c2C(C)C)ccn1 [Example 175, 2-(3-isopropyl-2-(2-methylpyridin-4-yl)-1H-indol-5-yl)-2-methyl-1-(piperazin-1-yl)propan-1-one] | 0.036 | 0.167 | 1.01 |
| Cc1cc(-c2[nH]c3ccc(C(C)(C)C(=O)N4CC5CC4CN5)cc3c2C(C)C)ccn1 (stereo not drawn) [Example 176, 1-(2,5-diazabicyclo[2.2.1]heptan-2-yl)-2-(3-isopropyl-2-(2-methylpyridin-4-yl)-1H-indol-5-yl)-2-methylpropan-1-one] | 0.211 | 0.26 | 8.39 |
| Cc1cc(-c2[nH]c3ccc(C(C)(C)C(=O)N4CCC(OC5CCNCC5)CC4)cc3c2C(C)C)ccn1 [Example 177, 2-(3-isopropyl-2-(2-methylpyridin-4-yl)-1H-indol-5-yl)-2-methyl-1-(4-(piperidin-4-yloxy)piperidin-1-yl)propan-1-one] | 0.058 | 0.128 | 1.47 |
| Cc1cc(-c2[nH]c3ccc(C(C)(C)C(=O)N4CCC5(CCNC5)C4)cc3c2C(C)C)ccn1 (stereo not drawn) [Example 178, 2-(3-isopropyl-2-(2-methylpyridin-4-yl)-1H-indol-5-yl)-2-methyl-1-(2,7-diazaspiro[4.4]nonan-2-yl)propan-1-one] | 0.859 | 0.061 | 1.66 |
| Cc1cc(-c2[nH]c3ccc(C(C)(C)C(=O)N4CC5(CCNCC5)C4)cc3c2C(C)C)ccn1 [Example 179, 2-(3-isopropyl-2-(2-methylpyridin-4-yl)-1H-indol-5-yl)-2-methyl-1-(2,7-diazaspiro[3.5]nonan-2-yl)propan-1-one] | 1.13 | 0.035 | 4.93 |
| Cc1cc(-c2[nH]c3ccc(C(C)(C)C(=O)N4CCCC5(CNC5)C4)cc3c2C(C)C)ccn1 [Example 180, 2-(3-isopropyl-2-(2-methylpyridin-4-yl)-1H-indol-5-yl)-2-methyl-1-(2,6-diazaspiro[3.5]nonan-6-yl)propan-1-one] | 0.306 | 0.147 | 1 |
| Cc1cc(-c2[nH]c3ccc(C(C)(C)C(=O)N4CCC5(CCNC5)CC4)cc3c2C(C)C)ccn1 [Example 181, 2-(3-isopropyl-2-(2-methylpyridin-4-yl)-1H-indol-5-yl)-2-methyl-1-(2,8-diazaspiro[4.5]decan-8-yl)propan-1-one] | 1.24 | 0.076 | 1.95 |
| Cc1cc(-c2[nH]c3ccc(C(C)(C)C(=O)N4CCCCC4C4CCNCC4)cc3c2C(C)C)ccn1 (stereo not drawn) [Example 182, 1-([2,4′-bipiperidin]-1-yl)-2-(3-isopropyl-2-(2-methylpyridin-4-yl)-1H-indol-5-yl)-2-methylpropan-1-one] | 0.081 | 0.015 | 0.716 |
| Cc1cc(-c2[nH]c3ccc(C(C)(C)C(=O)N4CC5CNCC5C4)cc3c2C(C)C)ccn1 (stereo not drawn) [Example 183, 1-(hexahydropyrrolo[3,4-c]pyrrol-2(1H)-yl)-2-(3-isopropyl-2-(2-methylpyridin-4-yl)-1H-indol-5-yl)-2-methylpropan-1-one] | 0.103 | 0.03 | 0.387 |
| Cc1cc(-c2[nH]c3ccc(C(C)(C)C(=O)N4CCCC5(CCNC5)C4)cc3c2C(C)C)ccn1 (stereo not drawn) [Example 184, 2-(3-isopropyl-2-(2-methylpyridin-4-yl)-1H-indol-5-yl)-2-methyl-1-(2,7-diazaspiro[4.5]decan-7-yl)propan-1-one] | 0.139 | 0.091 | 0.533 |
